According to publication PMC3493617 (Journal of the American Chemical Society, 2012):
Where “and” joins values, the source holds several entries; their conditions need not be identical. Equal entries are not always repeated.

Tests used:
AfUGM [1] = molecular target: T1, AfUGM (Aspergillus fumigatus, UniProt Q4W1X2); assay: Kinetic isotope effect on flavin reduction of AfUGM with deuterated coenzymes; type: biochemical
[2] = molecular target: Mycobacterium tuberculosis UGM (Mycobacterium tuberculosis, UniProt P9WIQ1); assay: Reduction of Mycobacterium tuberculosis UGM by NADPH; type: biochemical; details: estimated (Figure S5)
AfUGM S93A = AfUGM S93A (Aspergillus fumigatus, UniProt Q4W1X2, S93A); type: biochemical; details: S93A mutant
TcUGM = details: cited from earlier work
AfUGM [3] = molecular target: T1, AfUGM; assay: Stopped-flow kinetics of flavin reduction of AfUGM by NAD; type: biochemical; details: for kred / Kd / kred/Kd: AfUGM wild type; for kred / Kd: anaerobic, 15 °C; for kred: pH 7.0, flavin absorbance 452 nm; for Kd: pH 7.0, from fit of kobs; for kred/Kd: catalytic efficiency
AfUGM R91A = AfUGM R91A (Aspergillus fumigatus, UniProt Q4W1X2, R91A); type: biochemical; details: R91A mutant
[4] = pro-R H atom substituted with D

Compound | KIE on flavin reduction (AfUGM [1]; pro-S deuterated coenzyme used to reduce AfUGM) | kred [2] [s⁻¹] | Kd (AfUGM S93A) [µM] | Variational Effect (kred/Kd of variant)/(kred/Kd of AfUGM) (AfUGM S93A) | kred/Kd (AfUGM S93A) [M⁻¹ s⁻¹] | kred (AfUGM S93A; anaerobic, 15 °C, pH 7.0) [s⁻¹] | Kd (TcUGM) [µM] | kred (TcUGM) [s⁻¹] | kred/Kd (TcUGM) [M⁻¹ s⁻¹] | kred (AfUGM [3]) | Kd (AfUGM [3]) [µM] | kred/Kd (AfUGM [3]) | catalytic efficiency of AfUGM relative to TcUGM (AfUGM [3]; kred/Kd AfUGM vs TcUGM) [times] | Kd (AfUGM R91A) [µM] | Variational Effect (kred/Kd of variant)/(kred/Kd of AfUGM) (AfUGM R91A) | kred/Kd (AfUGM R91A) [M⁻¹ s⁻¹] | kred (AfUGM R91A; anaerobic, 15 °C, pH 7.0) [s⁻¹] | KIE on flavin reduction (AfUGM [1]; [4])
[2H]C1C=CN(C2OC(COP(=O)(O)OP(=O)(O)OCC3OC(n4cnc5c(N)ncnc54)C(OP(=O)(O)O)C3O)C(O)C2O)C=C1C(N)=O (stereo not shown) [pro-S NADPD] | 0.93 ± 0.03 |  |  |  |  |  |  |  |  |  |  |  |  |  |  |  |  | 
NC(=O)C1=CN([C@@H]2O[C@H](COP(=O)(O)OP(=O)(O)OC[C@H]3O[C@@H](n4cnc5c(N)ncnc54)[C@H](OP(=O)(O)O)[C@@H]3O)[C@@H](O)[C@H]2O)C=CC1 [NADPH] |  | 0.00002 | 21 ± 8 | 0.07 ± 0.03 | 8000 ± 3000 | 0.17 ± 0.01 | 98 | 0.6 | 6000 | 3 s⁻¹ and 2.98 ± 0.078 s⁻¹ | 25 ± 2 | 120000 M⁻¹ s⁻¹ and 120000 ± 10000 M⁻¹ s⁻¹ | 20 | 330 ± 20 | 0.008 ± 0.001 | 980 ± 70 | 0.313 ± 0.008 | 3.0 ± 0.1
NC(=O)C1=CN([C@@H]2O[C@H](COP(=O)(O)OP(=O)(O)OC[C@H]3O[C@@H](n4cnc5c(N)ncnc54)[C@H](O)[C@@H]3O)[C@@H](O)[C@H]2O)C=CC1 [NADH] |  |  |  |  |  |  |  |  |  | 0.2 s⁻¹ and 0.172 ± 0.003 s⁻¹ | 260 ± 20 | 670 M⁻¹ s⁻¹ and 670 ± 50 M⁻¹ s⁻¹ |  |  |  |  |  | 6.0 ± 0.7
